The subject of experiment [1] is U-87 MG. Put plainly: MTT assay, U-87 MG. As to conditions: Homo sapiens, 24 h of incubation, read-out: IC50 values ± SEM, MTT assay. It is filed as cell-based. The method, then: (§1) Human glioblastoma cell lines (A172 CRL-1620™, U-87 MG HTB-14™, U-118 MG HTB-15™, T98G CRL-1690™) and the mouse astrocyte cell line (C8-D1A CRL-2541™) were obtained from the American Type Culture Collection (ATCC, Manassas, VA, USA). The cell lines were cultured in complete medium: DMEM (Corning, Kennebunk, ME, USA) for C8-D1A and T98G, and EMEM (ATCC, Manassas, VA, USA) for A172, U-87 MG, U118MG. The media were supplemented with 10% foetal bovine serum (Eurx, Gdansk, Poland) and 1% penicillin-streptomycin solution (Corning, Kennebunk, ME, USA). Cells were cultured in cell culture flasks (Sarstedt, Numbrecht, Germany) at 37 °C in 5% CO2. For experiments, cells were washed with phosphate-buffered saline without calcium and magnesium (Corning, Kennebunk, ME, USA) and treated with 0.05% trypsin and 0.02% EDTA (Corning, Kennebunk, ME, USA). Cells were counted using a Sceptre 3.0 cell counter (Merck Millipore, Burlington, MA, USA) prior to seeding into plates. For 6-well plates, 5 x 10^5 cells/mL were seeded, while for 96-well plates (Sarstedt, Numbrecht, Germany), 1 x 10^5 cells/mL were seeded in 100 μL of the medium.
(§2) The cell lines were seeded in 96-well plates and cultured according to the methodology described in the previous section. Cells were then treated with the novel derivatives MM118 and MM119 and the reference compound temozolomide (TMZ) (Sigma-Aldrich, St. Louis, MO, USA) at concentrations of 0.1, 0.25, 0.5, 1.0, 2.5, 5.0, and 10.0 μM for 24 h. The MTT assay was performed using a solution of 3–(4,5-dimethyl-2-thiazolyl)-2,5-diphenyl-2H-tetrazolium bromide (Sigma-Aldrich, St. Louis, MO, USA) at a concentration of 5 mg/mL in phosphate-buffered saline without calcium and magnesium (Corning, Kennebunk, ME, USA). After 24 h incubation with test compounds, 10 μL MTT solution was added to each well, and cells were incubated for another 2 h at 37 °C. The cells were then lysed in 100 μL lysis buffer (25 mM HCl, 2% acetic acid, 3% DMF, and 5% SDS, adjusted to pH 4.7). Absorbance was measured at 570 nm using an Absorbance 96 microplate reader (Byonoy GmbH, Hamburg, Germany).

In experiment [2] the test system is U-118 MG. In words: MTT assay, U-118 MG. It is filed as cell-based. The following applies: Homo sapiens, 24 h of incubation, read-out: IC50 values ± SEM, MTT assay. As for the experimental part: as §1, §2
For orientation: Formazan colour is commonly taken as a measure of viable cells.

For experiment [3], the system named is C8-D1A. Put plainly: MTT assay, C8-D1A astrocytes. It counts as cell-based. As to conditions: C8-D1A mouse astrocytes, 24 h of incubation; read-out: IC50 values ± SEM, MTT assay. The method, then:
as §1, §2

Experiment [4] relates to A172. In words: Annexin V-FITC/PI apoptosis analysis, A172. As to conditions: A172, 1.5 μM, 24 h. It is filed as cell-based, human. As for the experimental part:
The level of apoptosis induction of the newly synthesised compounds MM118 and MM119 was determined using double staining with Annexin V-FITC and propidium iodide (AV/PI). This method enables the differentiation of four cell populations based on their state: viable cells, necrotic cells, cells in early apoptosis, and late apoptosis. The compounds were analysed on A172 and U-87 MG human glioblastoma multiforme cell lines using concentrations of 1 μM and 1.5 μM over a 24-h exposure period.
The impact of apoptosis induction by the tested compounds at concentrations of 1 μM and 1.5 μM, as well as by temozolomide at 1.5 μM, was evaluated through annexin V-FITC and propidium iodide (PI) staining with the Apoptosis Detection Kit II (BD Biosciences, San Diego, CA, USA). The glioblastoma cell lines A172 and U-87 MG were then deprived of medium and washed several times with cold phosphate-buffered saline (PBS) solution. The cell suspension was then prepared in the binding buffer provided in the kit at a concentration of 1 × 10^6 cells/mL. From each sample, 100 μL of the cell suspension was transferred to tubes and subsequently treated with 5 μL of Annexin V-FITC and 5 μL of propidium iodide (PI). The tubes were then incubated for 15 min at room temperature in the dark. Following the incubation period, 400 μL of binding buffer was added to each sample, after which the samples were immediately analysed using a BD FACSCanto II flow cytometer (Becton Dickinson Biosciences, San Jose, CA, USA), with 10,000 events recorded per sample. The results were then analysed using FACSDiva Software Version 6.1.3 (BD Biosciences Systems, San Jose, CA, USA).

Experiment [5] deals with caspase 8. In words: Caspase 8 activation (FAM FLICA), A172. It counts as cell-based, human. The following applies: A172, 1.5 μM, 24 h. The method, then: (§3) The activity of caspase 1, caspase 3/7, caspase 8, and caspase 9 was evaluated through the utilisation of FAM FLICA Caspase Assays (ImmunoChemistry Technologies, Bloomington, MN, USA), in accordance with the established protocols. Following treatment with the compounds, the cells were collected at a concentration of 1 × 10^6 cells/mL, washed twice with cold PBS, and resuspended in 290 μL of PBS. The subsequent step involved the addition of 10 μL of 30X FLICA solution, followed by incubation at 37 °C in the absence of light for one hour. Then, 2 ml of Apoptosis Wash Buffer was added, and the samples were washed twice. A 300 μL aliquot of each sample was transferred to a BD FACSCanto II flow cytometer (Becton Dickinson Biosciences, San Jose, CA, USA), where 10,000 events per sample were recorded. The resulting data was then analysed using FACSDiva software, version 6.1.3 (BD Biosciences Systems, San Jose, CA, USA).

The subject of experiment [6] is caspase 9. In words: Caspase 9 activation (FAM FLICA), U-87 MG. It counts as cell-based, human. The following applies: 1.5 μM, 24 h. As for the experimental part: as §3
In experiment [7] the test system is caspase 3/7. In words: Caspase 3/7 activation (FAM FLICA), A172. It is filed as cell-based, human. The following applies: A172, 1.5 μM, 24 h. As for the experimental part: as §3

Consider 3 compounds from PMC12679848, “Sulphonamide derivatives with a triazine core as novel inducers of apoptosis and pyroptosis in glioblastoma multiforme cells” (Journal of Enzyme Inhibition and Medicinal Chemistry, 2025).

By IC50 is commonly meant the midpoint of a concentration-inhibition curve.

Take `Cn1nnc2c(C(N)=O)ncn2c1=O` [TMZ, temozolomide, reference compound]: the IC50 in experiment [1], in experiment [2] and in experiment [3] was greater than 10 µM each time. In experiment [4], this compound gave an Early apoptotic cells of 1.55 ± 0.06%. For the same compound, in experiment [4], the Late apoptotic cells came to 6.83 ± 0.39%. The compound further displayed a Necrotic cells in experiment [4] of 1.90 ± 0.38%. In addition, the “Active caspase 8 (cell population)” value in experiment [5] was “No significant statistical differences”. Besides, in experiment [6], the “Active caspase 9 (cell population)” value is on record as “no significant differences”. The “Active caspase 3/7 (cell population)” value in experiment [7] was “no significant differences”.

`CCC(CO)NS(=O)(=O)c1ccc(-n2nc(C)c3nc4nnnn4nc32)cc1` (stereo in doubt) [MM118, N-(R)-(1-hydroxy-but-2-yl)-4-[7-methyl-5H-pyrazolo[4,3-e]tetrazolo[1,5-b][1]^,[2]^,[4]triazin-5-yl)]benzenesulfonamide]: the IC50 in experiment [1] came out at 0.992 ± 0.37 µM. Also, the IC50 in experiment [2] was found to be 0.471 ± 0.191 µM. Moreover, the IC50 in experiment [3] was 2.19 ± 0.34 µM. In experiment [4], this compound gave an Early apoptotic cells of 3.03 ± 0.44%, a Late apoptotic cells of 22.10 ± 6.56% and a Necrotic cells of 9.50 ± 2.10%. The “Active caspase 8 (cell population)” value in experiment [5] amounted to 42.85 ± 5.36%. In experiment [6], the “Active caspase 9 (cell population)” value was found to be 67.23 ± 1.66%. The “Active caspase 3/7 (cell population)” value in experiment [7] came to 42.40 ± 12.59%.

For the compound `CCC(CO)NS(=O)(=O)c1ccc(-n2nc(C)c3nc4nnnn4nc32)cc1` (stereo in doubt) [MM119, N-(S)-(1-hydroxy-but-2-yl)-4-[7-methyl-5H-pyrazolo[4,3-e]tetrazolo[1,5-b][1]^,[2]^,[4]triazin-5-yl)]benzenesulfonamide], in experiment [1], the IC50 amounted to 1.19 ± 0.422 µM. The concentration for half-maximal inhibition (IC50) in experiment [2] amounted to 0.67 ± 0.173 µM. Also, in experiment [3], the 50% inhibitory concentration (IC50) was 2.25 ± 0.294 µM. Also, in experiment [4], the Early apoptotic cells is 1.00 ± 0.28%, the Late apoptotic cells was 18.80 ± 1.35% and the Necrotic cells amounted to 2.13 ± 0.62%. Also, the “Active caspase 8 (cell population)” value in experiment [5] amounted to 34.35 ± 7.58%. Besides, the “Active caspase 9 (cell population)” value in experiment [6] is given as 51.45 ± 1.63%. Further, in experiment [7], the “Active caspase 3/7 (cell population)” value stood at 25.60 ± 4.29%.
